Reference: article PMC7881012, “Human ACE2 peptide-mimics block SARS-CoV-2 pulmonary cells infection” (Communications Biology, 2021)
Like-named read-outs stand apart in the source and are kept apart here. Square brackets hold non-standard residues; d marks the D form. Ends that are not written are not given here. Peptide text beside a SMILES is read from it. hTyr = N[C@@H](CCc1ccc(O)cc1)C(=O)O

How the values were obtained:
[1] = Helical content by circular dichroism; assay type: physicochemical; details: 60 µM peptide, 50 mM sodium phosphate buffer pH 7.4, 25 °C, DichroWeb CDSSTR deconvolution
Text: The conformation of synthesized peptides in aqueous solution was investigated by circular dichroism (CD) spectroscopy. […] The deconvolution of the CD spectra using DichroWeb[25] allowed us to estimate the helical population for each peptide, which is reported in Table 1. Overall, an excellent agreement was observed between the Agadir-computed values and the experimental helical population inferred from CD data. […] The introduction of a proline residue in peptide P5 has a strong destabilizing effect on helical conformation (17%) whereas Leu/hTyr substitution only led to a slight decrease of the helical content (P7 versus P6 and P10 versus P8).
Fig. 2 Far-UV CD spectra of synthesized peptides. […] CD measurements are reported as molar ellipticity per residue.
CD spectra were recorded on a Jasco J-815 CD spectropolarimeter equipped with a Peltier temperature controller. Data were obtained at 25 °C over a wavelength range between 185 nm and 270 nm, using a wavelength interval of 0.2 nm and a scan rate of 20 nm min^−1. Peptide samples were prepared at a concentration of 60 µM in 50 mM sodium phosphate buffer, pH 7.4, in a quartz cell of 1 mm path length. CD experiments were processed and plotted with R program. CD spectra were analyzed using DICHROWEB web server and CDSSTR deconvolution algorithm.

[2] = HPLC retention time (LC-MS method B); assay type: physicochemical; details: method B: X-Select CSH C18 XP, 0.1% formic acid water/acetonitrile, 5-100% B in 3.2 min, 1.8 mL min^−1, 40 °C; used as indicator of hydrophobicity
[3] = system: SARS-CoV-2 clinical isolate SARS-CoV-2/PSL2020 in Vero-E6 cells
[4] = Solubility (qualitative); assay type: physicochemical; details: qualitative statement
[5] = system: SARS-CoV-2 clinical isolate SARS-CoV-2/PSL2020 in Calu-3 cells; details: clinical isolate /PSL2020 in Calu-3 cells, 48 h
[6] = system: SARS-CoV-2 clinical isolate SARS-CoV-2/PSL2020 in Calu-3 cells; assay type: cell-based
[7] = system: Calu-3 cells; details: 10 μM (150 times the IC50); MTT and annexin-V/PI, 24, 48 or 72 h (Fig. 3f)
[8] = system: Vero-E6 cells
[9] = system: Vero-E6 cells; details: 10 µM
[10] = system: Calu-3 cells
[11] = molecular target: SARS-CoV-2 spike RBD (Fc-tagged 2019-nCoV RBD-SD1) (Severe acute respiratory syndrome coronavirus 2, UniProt P0DTC2); assay: biochemical; assay type: binding; details: for kon: read-out: ka, association constant; for koff: read-out: kdis, dissociation constant
[12] = clinical isolate /PSL2020 in Vero-E6 cells, 48 h, 10 µM
[13] = BLI EXP1, sample conc. ACE2 10 nM, P8 100 nM, P9 and P10 1000 nM
[14] = BLI EXP2, sample conc. ACE2 100 nM, P8 1000 nM, P9 and P10 1111 nM

Compound: CC(C)C[C@H](NC(=O)[C@H](C)NC(=O)[C@H](CC(C)C)NC(=O)[C@H](C)NC(=O)[C@H](CC(C)C)NC(=O)[C@H](CCC(N)=O)NC(=O)[C@H](Cc1ccc(O)cc1)NC(=O)[C@H](CC(C)C)NC(=O)[C@H](CC(C)C)NC(=O)[C@H](CC(=O)O)NC(=O)[C@H](CCC(=O)O)NC(=O)[C@H](CC(C)C)NC(=O)[C@H](CCC(=O)O)NC(=O)[C@H](Cc1c[nH]cn1)NC(=O)[C@H](CC(C)C)NC(=O)[C@H](Cc1ccccc1)NC(=O)[C@H](CCCCN)NC(=O)[C@H](CC(=O)O)NC(=O)[C@H](CC(C)C)NC(=O)[C@H](Cc1ccccc1)NC(=O)[C@@H](NC(=O)[C@H](CCCCN)NC(=O)[C@H](CCc1ccc(O)cc1)NC(=O)[C@H](CCC(N)=O)NC(=O)[C@H](CCC(=O)O)NC(=O)[C@H](CCC(=O)O)NC(=O)[C@H](CC(C)C)NC(=O)[C@H](C)NC(=O)[C@@H](N)CO)[C@@H](C)O)C(N)=O [P7] (H-SALEEQ[hTyr]KTFLDKFLHELEDLLYQLALAL-NH2)
- Experimental helical content% [1]: 63%
- RT, HPLC retention time [2]: 2,57 min
- % Inhibition of SARSCoV-2 replication at 10 μM ([3]; […], mean of at least three independent experiments): 54%
- % Inhibition, Moyenne [3, 12]: 53.7%
- % Inhibition, Q2 (Median) [3, 12]: 43.4%
- solubility [4]: slight increase in solubility
- IC50 [5]: > 1000 nM

Compound: SALEEQLKTFLDKFMHELEDLLYQLAL-NH2 [P8]
- Experimental helical content% [1]: 70%
- RT, HPLC retention time [2]: 2,45 min
- SARSCoV-2 virus titer at 1 μM (PFU mL^−1) on Calu-3 [6]: 0 PFU mL^−1
- cytotoxicity in uninfected Calu-3 cells [7]: no cytotoxicity
- Cell viability (MTT) ([8]; 72 h, 0.1 µM): 98%
- toxicity in Vero-E6 ([8]; MTT 0.1-10 µM and annexin-V/PI 10 µM, 24, 48 or 72 h (Fig. 3c)): devoid of toxicity
- Cell death (AnnV+PI) ([9]; 24 h, EXP1, flow cytometry): 3.74%
- Cell death (AnnV+PI) ([9]; 24 h, EXP2, flow cytometry): 3.24%
- Cell death (AnnV+PI) ([9]; 24 h, EXP3, flow cytometry): 5%
- Cell death (AnnV+PI) ([9]; 48 h, EXP1, flow cytometry): 5.63%
- Cell death (AnnV+PI) ([9]; 48 h, EXP2, flow cytometry): 4.63%
- Cell death (AnnV+PI) ([9]; 48 h, EXP3, flow cytometry): 4.26%
- Cell death (AnnV+PI) ([9]; 72 h, EXP1, flow cytometry): 4%
- Cell death (AnnV+PI) ([9]; 72 h, EXP2, flow cytometry): 3%
- Cell death (AnnV+PI) ([9]; 72 h, EXP3, flow cytometry): 3.48%
- Cell death (AnnV+PI) ([10]; EXP1, peptide 10 µM, 24 h (0 µM: 16%)): 23%
- Cell death (AnnV+PI) ([10]; EXP1, peptide 10 µM, 48 h (0 µM: 18%)): 20%
- Cell death (AnnV+PI) ([10]; EXP1, peptide 10 µM, 72 h (0 µM: 23%)): 18%
- Cell death (AnnV+PI) ([10]; EXP2, peptide 10 µM, 24 h (0 µM: 13%)): 16%
- Cell death (AnnV+PI) ([10]; EXP2, peptide 10 µM, 48 h (0 µM: 17%)): 19%
- Cell death (AnnV+PI) ([10]; EXP2, peptide 10 µM, 72 h (0 µM: 20%)): 22%
- Cell death (AnnV+PI) ([10]; EXP3, peptide 10 µM, 24 h (Vehicle: 15%)): 23%
- Cell death (AnnV+PI) ([10]; EXP3, peptide 10 µM, 48 h (Vehicle: 18%)): 20%
- Cell death (AnnV+PI) ([10]; EXP3, peptide 10 µM, 72 h (Vehicle: 22%)): 18%
- kon [11, 13]: 5610 M⁻¹ s⁻¹
- koff [11, 13]: 8.94e-05 s⁻¹
- kon [11, 14]: 4310 M⁻¹ s⁻¹
- koff [11, 14]: 0.000137 s⁻¹
- solubility [4]: highly soluble
- IC50 [5]: 46 nM
